Laboratory results taken from the supplement of paper PMC10307832.

Assays:
Test in all cases: relative viability (nuclei count vs DMSO), 5 days (fraction); higher = more cells survive
Tozasertib + Bortezomib = compound: Cc1cc(Nc2cc(N3CCN(C)CC3)nc(Sc3ccc(NC(=O)C4CC4)cc3)n2)n[nH]1 [Tozasertib] + CC(C)C[C@H](NC(=O)[C@H](Cc1ccccc1)NC(=O)c1cnccn1)B(O)O [Bortezomib] (partner 0.002 µM)
How it was run: (§1)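 For relative viability, nuclei counts in treated wells were divided by those in vehicle wells. Lung cancer cell lines had been pin-tool dosed in 1536-well plates the day after seeding and cultured for 5 days, then fixed and stained in one step (final 0.05% Triton X-100, 1% formaldehyde, 1 ug/ml Hoechst) and imaged at 4×. Doses were one drug alone or a fixed anchor-drug dose plus five library-drug doses (not always all listed) in √10 steps, and values are duplicate-plate medians.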

Tozasertib + Navitoclax = compound: Cc1cc(Nc2cc(N3CCN(C)CC3)nc(Sc3ccc(NC(=O)C4CC4)cc3)n2)n[nH]1 [Tozasertib] + CC1(C)CCC(c2ccc(Cl)cc2)=C(CN2CCN(c3ccc(C(=O)NS(=O)(=O)c4ccc(N[C@H](CCN5CCOCC5)CSc5ccccc5)c(S(=O)(=O)C(F)(F)F)c4)cc3)CC2)C1 [Navitoclax] (partner 0.5 µM)
How it was run: as §1

Tozasertib + Crizotinib = compound: Cc1cc(Nc2cc(N3CCN(C)CC3)nc(Sc3ccc(NC(=O)C4CC4)cc3)n2)n[nH]1 [Tozasertib] + C[C@@H](Oc1cc(-c2cnn(C3CCNCC3)c2)cnc1N)c1c(Cl)ccc(F)c1Cl [Crizotinib] (partner 1 µM)
How it was run: as §1

Tozasertib + Vorinostat = compound: Cc1cc(Nc2cc(N3CCN(C)CC3)nc(Sc3ccc(NC(=O)C4CC4)cc3)n2)n[nH]1 [Tozasertib] + O=C(CCCCCCC(=O)Nc1ccccc1)NO [Vorinostat] (partner 1 µM)
How it was run: as §1

Tozasertib + Olaparib = compound: Cc1cc(Nc2cc(N3CCN(C)CC3)nc(Sc3ccc(NC(=O)C4CC4)cc3)n2)n[nH]1 [Tozasertib] + O=C(c1cc(Cc2n[nH]c(=O)c3ccccc23)ccc1F)N1CCN(C(=O)C2CC2)CC1 [Olaparib] (partner 8 µM)
How it was run: as §1

Row | Cell Line | relative viability (Tozasertib + Bortezomib; first compound 0.004 µM) | relative viability (Tozasertib + Bortezomib; first compound 0.01265 µM) | relative viability (Tozasertib + Bortezomib; first compound 0.04 µM) | relative viability (Tozasertib + Bortezomib; first compound 0.1265 µM) | relative viability (Tozasertib + Navitoclax; first compound 0.004 µM) | relative viability (Tozasertib + Navitoclax; first compound 0.01265 µM) | relative viability (Tozasertib + Navitoclax; first compound 0.04 µM) | relative viability (Tozasertib + Navitoclax; first compound 0.1265 µM) | relative viability (Tozasertib + Crizotinib; first compound 0.01265 µM) | relative viability (Tozasertib + Crizotinib; first compound 0.04 µM) | relative viability (Tozasertib + Crizotinib; first compound 0.1265 µM) | relative viability (Tozasertib + Vorinostat; first compound 0.004 µM) | relative viability (Tozasertib + Vorinostat; first compound 0.01265 µM) | relative viability (Tozasertib + Vorinostat; first compound 0.04 µM) | relative viability (Tozasertib + Vorinostat; first compound 0.1265 µM) | relative viability (Tozasertib + Olaparib; first compound 0.004 µM) | relative viability (Tozasertib + Olaparib; first compound 0.01265 µM) | relative viability (Tozasertib + Olaparib; first compound 0.04 µM) | relative viability (Tozasertib + Olaparib; first compound 0.1265 µM) | relative viability (Tozasertib + Crizotinib; first compound 0.004 µM)
1 | HCC-366 | 1.2 | 1 | 1.15 | 0.53 | 1.09 | 0.945 | 1.17 | 0.752 | 0.472 | 0.257 | 0.039 | 0.371 | 0.3 | 0.198 | 0.0431 | 0.333 | 0.333 | 0.312 | 0.127 | 
2 | HCC-827 | 1.03 | 1.04 | 1.06 | 0.839 | 0.973 | 1.09 | 1.03 | 0.925 | 0.82 | 0.927 | 0.719 | 0.87 | 0.835 | 0.89 | 0.584 | 0.684 | 0.577 | 0.723 | 0.624 | 1.02
3 | HOP-62 | 0.735 | 0.713 | 0.404 | 0.67 | 1.06 | 0.946 | 1.08 | 0.99 | 0.964 | 0.941 | 0.776 | 0.621 | 0.483 | 0.628 | 0.462 | 0.699 | 0.436 | 0.458 | 0.288 | 1.03
4 | LC-2-ad | 0.949 | 0.978 | 1.04 | 0.427 | 0.412 | 0.431 | 0.396 | 0.147 | 0.452 | 0.405 | 0.369 | 0.762 | 0.631 | 0.613 | 0.272 | 0.732 | 0.677 | 0.602 | 0.608 | 0.441
5 | LCLC-97TM1 | 0.933 | 0.271 | 0.624 | 0.106 |  | 0.434 | 0.466 | 0.242 | 0.288 | 0.257 | 0.189 | 0.69 | 0.639 | 0.644 | 0.153 | 0.53 | 0.381 | 0.335 | 0.231 | 
6 | LCLC-103H | 1.04 | 1.14 | 1.2 | 0.974 |  |  |  |  | 1.05 | 1.1 | 1.07 | 0.842 | 0.863 | 0.743 | 0.544 | 0.782 | 0.811 | 0.772 | 0.734 | 0.993
7 | LK-2 |  |  |  |  | 0.878 | 0.736 | 0.981 | 0.392 |  | 0.239 | 0.244 | 0.287 | 0.321 | 0.28 | 0.197 | 0.753 | 0.715 | 0.77 | 0.326 | 0.19
8 | LOU-NH91 | 0.423 | 0.51 | 0.485 | 0.408 | 0.426 | 0.704 | 0.726 | 0.665 | 0.703 | 0.754 | 0.722 | 0.761 | 0.889 | 0.983 | 0.707 | 0.781 | 0.916 | 0.937 | 0.922 | 0.619
9 | NCI-H358 |  |  |  |  |  |  |  |  | 0.345 | 0.261 | 0.228 | 0.626 | 0.648 | 0.361 | 0.15 | 0.555 | 0.562 | 0.56 | 0.187 | 0.457
10 | NCI-H522 |  |  |  |  |  |  |  |  |  |  |  | 0.917 | 1.14 | 0.759 | 0.782 | 0.619 |  | 0.603 | 0.531 | 
11 | NCI-H650 | 0.663 | 0.68 | 0.976 | 0.523 |  |  |  |  | 0.73 | 0.574 | 0.397 | 0.448 | 0.4 | 0.568 | 0.389 | 0.381 | 0.315 | 0.357 | 0.325 | 0.8
12 | NCI-H661 | 0.922 | 0.741 | 1.03 | 0.499 |  |  |  |  | 1.05 | 0.885 | 0.605 | 0.912 | 0.806 | 0.549 | 0.312 | 0.807 | 0.791 | 0.663 | 0.448 | 1.06
13 | NCI-H1395 |  |  |  |  | 1.28 | 1.13 | 1.06 | 0.825 |  |  |  | 0.944 | 0.641 | 0.643 | 0.353 | 0.435 | 0.492 | 0.407 | 0.414 | 
14 | NCI-H1703 | 0.41 | 0.29 | 0.401 | 0.222 | 1.35 | 1.14 | 1.26 | 0.366 | 0.848 | 0.318 | 0.24 |  |  |  |  | 0.492 | 0.391 | 0.476 | 0.45 | 1.58
15 | NCI-H1792 | 0.771 | 0.88 | 1.1 | 0.96 | 0.681 | 0.481 |  | 0.418 | 0.9 | 1.16 | 0.913 |  |  |  |  | 0.456 | 0.435 | 0.707 | 0.314 | 0.951
16 | NCI-H1793 |  |  |  |  | 0.492 | 0.501 | 0.453 | 0.33 |  |  |  | 0.785 | 0.654 | 0.931 | 0.267 | 0.918 | 0.778 | 0.974 | 0.533 | 
17 | NCI-H1944 |  |  |  |  | 0.96 | 1.05 | 1.02 | 0.695 | 0.962 | 1.04 | 0.616 | 0.557 | 0.519 | 0.427 | 0.204 | 0.406 | 0.38 | 0.398 | 0.287 | 0.943
18 | NCI-H2170 |  |  |  |  | 0.556 | 0.565 | 0.583 | 0.557 | 1.19 | 1.02 | 0.736 | 0.764 | 0.887 | 0.69 | 0.427 | 0.566 | 0.636 | 0.572 | 0.519 | 1.15
19 | NCI-H2342 |  |  |  |  |  |  |  |  |  |  |  | 0.77 | 0.78 | 0.782 | 0.597 | 0.43 | 0.44 | 0.471 | 0.443 | 
20 | SK-MES-1 |  |  |  |  | 1.17 | 1.23 | 1.4 | 1.02 | 0.929 | 0.94 | 0.901 | 1 | 1.1 | 1.19 | 0.525 | 0.791 | 0.666 | 0.71 | 0.657 | 1.04
21 | SW 900 |  |  |  |  |  |  |  |  |  |  |  | 0.579 | 0.436 |  | 0.266 | 0.802 | 0.809 | 0.851 | 0.619 | 
